Test results: BindingDB's records for doi:10.1021/jm970211n (University of Michigan, 1997)

test: Inhibition of angiotensin I converting enzyme in silico

| IC50 | SMILES |
| --- | --- |
| 25.1 nM | CC(NP(=O)(O)CCc1ccccc1)C(=O)N1CCCC1C(=O)O (stereo unspecified) [1-hydroxy-1-phenylethyl-phosphinoylamino]-propionyl-pyrrolidine-2-carboxylic acid] |
| 63.1 nM | O=C(S[C@@H]1CCC[C@@H]1C(=O)N1CCC[C@H]1C(=O)O)c1ccccc1 |
| 158 nM | O=C(O)[C@@H]1CCCN1C(=O)[C@@H]1CC[C@H]1S |
| 2510 nM | O=C(O)[C@@H]1C=CCn2c(=O)n(CS)c(=O)n21 |
| 12.6 nM | O=C(O)[C@@H]1CC2(CN1C(=O)CP(=O)(O)CCCCc1ccccc1)SCCS2 |
| 0.794 nM | C[C@H](NC(CCC(=O)Nc1ccc(I)cc1)C(=O)O)C(=O)N1CCC[C@H]1C(=O)O (stereo partly specified) |
| 3160 nM | CC1(CS)C(=O)N2CCCC(C(=O)O)N2C1=O (stereo unspecified) |
| 3.16 nM | O=C(O)Cn1c(=O)n2n(c1=O)C(C(=O)O)C=CC2 (stereo unspecified) |
| 31.6 nM | O=C(O)CCc1cc(O)c2n(c1=O)[C@H](C(=O)O)CC2 |
| 10 nM | CC(NC(=O)C1CCCCC1S)C(=O)N1CCCC1C(=O)O (stereo unspecified) |

| SMILES | IC50 |
| --- | --- |
| CC(NP(=O)(O)O)C(=O)C1CCCC1C(=O)O (stereo unspecified) | 5.01 nM |
